The target of this assay is T1, cell surface folate receptors on folate receptor positive M109 cells (Mus musculus, UniProt P35846).
T1 construct: cell surface folate receptors on folate receptor positive M109 cells in culture; endogenous in cells; host or cells: M109 cells
In words: Fluorescence measurement of binding to cell surface folate receptors on M109 cells in culture. In kind it is cell-based. The protocol: TEXAS RED C2-maleimide (Molecular Probes, Eugene, Oreg.) was dissolved in dimethyl sulfoxide (DMSO) (1 mg in 200 μl DMSO). A 1.4 molar equivalent (1 mg) of Folate-Cys was added to the solution and mixed for 4 hours at room temperature. Folate-Cys-TEXAS RED (Folate-TEXAS RED) was purified by reverse-phase HPLC on a C18 column at a flow rate of 1 ml/min. The mobile phase, consisting of 10 mM NH4HCO3 buffer, pH 7.0 (eluent A) and acetonitrile (eluent B), was maintained at a 99:1 A:B ratio for the first five minutes and then changed to 70:30 A:B in a linear gradient over the next 30 minutes followed by a 1:99 A:B linear gradient over the last 15 minutes. Folate-Cys-TEXAS RED eluted as two isomer peaks at 44.5 and 45.8 minutes. The product was confirmed by mass spectroscopy and the biologic activity was confirmed by fluorescence measurement of its binding to cell surface folate receptors on folate receptor positive M109 cells in culture.
ALEXAFLUOR 488 C5-maleimide (Molecular Probes, Eugene, Oreg.) was dissolved in dimethyl sulfoxide (DMSO) (0.5 mg in 50 μl DMSO). A 1.5 molar equivalent (0.57 mg) of Folate-Cys was added to the solution and mixed for 4 hours at room temperature. […] The product was confirmed by mass spectroscopy and the biologic activity was confirmed by fluorescence measurement of its binding to cell surface folate receptors on folate receptor positive M109 cells in culture.

SMILES strings stand for the structures.

T1 sequence (P35846 25-232): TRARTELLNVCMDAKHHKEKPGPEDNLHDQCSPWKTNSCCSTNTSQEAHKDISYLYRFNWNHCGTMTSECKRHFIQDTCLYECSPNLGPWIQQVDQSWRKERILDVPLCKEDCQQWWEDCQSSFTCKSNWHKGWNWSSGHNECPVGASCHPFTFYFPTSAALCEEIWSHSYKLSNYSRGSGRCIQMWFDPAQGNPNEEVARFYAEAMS

Regarding `N=c1ccc2c(-c3ccc(C(=O)NCCCCCN4C(=O)CC(SCC(NC(=O)CCC(NC(=O)c5ccc(NCc6cnc7nc(N)[nH]c(=O)c7n6)cc5)C(=O)O)C(=O)O)C4=O)cc3C(=O)O)c3ccc(N)c(S(=O)(=O)O)c3oc-2c1S(=O)(=O)O` (centres unmarked) [Folate-Cys-ALEXAFLUOR 488], the “biologic activity: binding to cell surface folate receptors” value was “confirmed”.

For the compound `Nc1nc2ncc(CNc3ccc(C(=O)NC(CCC(=O)NC(CSC4CC(=O)N(CCNS(=O)(=O)c5ccc(C6=c7cc8c9c(c7Oc7c6cc6c%10c7CCCN%10CCC6)CCC[N+]=9CCC8)c(S(=O)(=O)O)c5)C4=O)C(=O)O)C(=O)O)cc3)nc2c(=O)[nH]1` (centres unmarked) [Folate-Cys-TEXAS RED], the “biologic activity: binding to cell surface folate receptors” value is “confirmed”.

The values above are taken from US9279813B2, “Ex vivo flow cytometry method and device” (Purdue Research Foundation, priority 2006, dated 2016).
